The subject of assay [1] is tumor. The experiment in a line: Intraoperative NIR imaging of patients given intravenous VGT-309 before surgery (Examples 1-3). In kind it is in vivo, human.
In assay [2] the test system is cancerous tissue. The assay is described as follows: Preclinical / animal model studies: duration of VGT-309 fluorescence in tissue after administration. It is filed as in vivo. From the text: There are several molecular imaging agents that are currently in various stages of development and testing, but of these agents VGT-309 is particularly advantageous. VGT-309 targets and covalently binds to cathepsin targets, which are present in larger amounts in solid tumors and tumor margins than in normal tissues. When this binding occurs, the quencher is cleaved from the molecule and VGT-309 becomes “active” at which point the tumor will fluoresce under near-infrared (NIR) light.

Assay [3] concerns tumor. The assay is described as follows: Phase 2 study: clinically significant events (CSEs) during tumor removal with imaging agent and NIR. It is filed as in vivo, human. Particulars: Phase 2 study of VGT-309 in Australia. The source says: CSEs are one way to measure whether an imaging agent, such as VGT-309, adds a clinical benefit to the diagnosis and treatment process. In this context, CSEs generally fall into one of three categories: (1) localization of hard-to-find tumors, (2) identification of positive resection margins, and (3) identification of additional primary and metastatic lesions that were not previously detected using existing technologies.

Regarding `CC1(C)C(/C=C/C2=C(Cl)C(=C/C=C3/N(CCCCCC(=O)NCCNC(=O)c4c(F)c(F)c(OCC(=O)[C@H](CCCCNC(=O)CCCCCN5/C(=C/C=C/C=C/C=C\C6=[N+](CCCCS(=O)(=O)[O-])c7ccc8ccccc8c7C6(C)C)C(C)(C)c6c5ccc5ccccc65)NC(=O)[C@H](Cc5ccccc5)NC(=O)OCc5ccccc5)c(F)c4F)c4ccc5cc(S(=O)(=O)O)ccc5c4C3(C)C)/CCC2)=[N+](CCCS(=O)(=O)[O-])c2ccc(N(CCCS(=O)(=O)O)CCCS(=O)(=O)O)cc21` [VGT-309], the “visualization of tumor under NIR imaging” value in assay [1] (Example 1, patient, 0.32 mg/kg approximately 21 hours prior to surgery) is “clearly show the location and extent of the tumor”. Further, the “localization of primary tumor under NIR” value in assay [1] (Example 2, patient, 0.16 mg/kg approximately 21 hours prior to surgery) is “more easily locate the primary tumor”. In assay [1] (Example 2, patient, 0.16 mg/kg approximately 21 hours prior to surgery, biopsy confirmed that the cancer had spread), the “detection of lymph node spread by fluorescence under NIR” value was “unexpected fluorescence in a more distant lymph node”. The “identification of previously identified (primary) tumor” value in assay [1] (Example 3, patient with regrowth after radiation, 0.32 mg/kg approximately 18.5 hours prior to surgery) was “able to quickly identify and remove the previously identified tumor”. In addition, in assay [1] (Example 3, patient, 0.32 mg/kg approximately 18.5 hours prior to surgery, abnormal lung tissue confirmed cancerous under NIR), the “identification of additional tumors (metastatic spread) using NIR” value was “able to identify additional tumors using NIR”. In addition, the “time VGT-309 may continue to emit a signal in tissue following administration” value in assay [2] (animal model studies suggest) is recorded as “out to seven days”. Further, the “time window after administration in which VGT-309 can fluoresce cancerous tissue” value in assay [2] (based on preclinical studies, under NIR light) is “two hours to four days”. Further, the “fraction of patients who experienced a clinically significant event (CSE)” value in assay [3] is reported as “one third”.

The values are drawn from patent publication US20240389846A1, “Methods for Localization of Cancerous Tissue Using Fluorescent Molecular Imaging Agent for Diagnosis or Treatment” (Vergent Bioscience, Inc., priority 2022, published 2024).
